Reference: patent publication US6642216B2, “Isoprenoid pathway inhibitors for stimulating bone growth” (ZymoGenetics Corporation, priority 1996, dated 2003)

What was measured:
BMP-2 promoter = assay: ABA assay: BMP-2 promoter-luciferase reporter in 2T3-BMP-2-LUC osteoblast cells; assay type: cell-based, mouse
Description: These transformed cells are then evaluated for the production of the reporter gene product; compounds that activate the BMP promoter will drive production of the reporter protein, which can be readily assayed.
The cells were cultured using α-MEM, 10% FCS with 1% penicillin/streptomycin and 1% glutamine (“plating medium”), and were split 1:5 once per week. For the assay, the cells were resuspended in a plating medium containing 4% FCS, plated in microtiter plates at a concentration of 5×10^3 cells (in 50 μl)/well, and incubated for 24 hours at 37° C. in 5% CO2. To initiate the assay, 50 μl of the test compound or the control in DMSO was added at 2× concentration to each well, so that the final volume was 100 μl. The final serum concentration was 2% FCS, and the final DMSO concentration was 1%.
The treated cells were incubated for 24 hours at 37° C. and 5% CO2. The medium was then removed, and the cells were rinsed three times with PBS. After removal of excess PBS, 25 μl of 1× cell culture lysing reagent (Promega #E153A) was added to each well and incubated for at least ten minutes. Optionally, the plates/samples could be frozen at this point. To each well was added 50 μl of luciferase substrate (Promega #E152A; 10 ml Promega luciferase assay buffer per 7 mg Promega luciferase assay substrate). Luminescence was measured on an automated 96-well luminometer, and was expressed as either picograms of luciferase activity per well or as picograms of luciferase activity per microgram of protein.
Alternatively, the reactivity of a compound to be tested can be compared directly to a negative control containing no compound.

neonatal mouse calvaria = assay: Neonatal mouse calvaria assay (in vitro bone formation); assay type: cell-based; settings: for effect on new bone area: under these conditions (0.1-1000 μM)
Description: Briefly, four days after birth, the front and parietal bones of ICR Swiss white mouse pups are removed by microdissection and split along the sagittal suture.
Three μm sections of the calvaria are prepared. Representative sections are selected for histomorphometric assessment of bone formation or bone resorption. Bone changes are measured on sections cut 200 μm apart. Osteoblasts and osteoclasts are identified by their distinctive morphology.
Selected compounds and appropriate controls were assayed in vitro (ex vivo) for bone formation activity (described above in “Neonatal Mouse Calvaria Assay (in vitro)”). Histomorphometrical assessments of ex vivo calvaria were carried out using an OsteoMetrics bone morphometry measurement program, according to the manufacturer's instructions. Measurements were determined using either a 10- or 20-fold objective with a standard point counting eyepiece graticule.
New bone formation was determined (using a 10× objective) by measuring the new bone area formed in one field in 3 representative sections of each bone (4 bones per group). Each measurement was carried out ½ field distance from the end of the suture. Both total bone and old bone area were measured. Data were expressed as new bone area in mm^2.
Osteoblast numbers were determined by point counting. The number of osteoblast cells lining the bone surface on both sides of the bone were counted in one field using a 20× objective. Data were expressed as osteoblast numbers/mm of bone surface.
The results were calculated as new bone area in mm^2×10^−3, as above.

[1] = Experiment 3, 8.88178E μg/ml (0.002193 μM lovastatin, 0.002087 μM fluvastatin)

c1ccc(N=NC2=NNc3ccccc3S2)cc1 [59-0008, 3-phenylazo-1H-4,1,2-benzothiadiazine]
concentration at which reactivity is maximal (BMP-2 promoter): 3 to 10 µM

NCCCC(O)(P(=O)(O)O)P(=O)(O)O [Alendronate, alendronate]
New Bone Area (neonatal mouse calvaria; other bisphosphonates, 0.1 μM): 3.5 ± 0.3 mm^2 × 10^−3 | New Bone Area (neonatal mouse calvaria; other bisphosphonates, 1 μM): 5.2 ± 0.5 mm^2 × 10^−3 | New Bone Area (neonatal mouse calvaria; other bisphosphonates, 10 μM): 3.3 ± 0.6 mm^2 × 10^−3 | New Bone Area (neonatal mouse calvaria; other bisphosphonates, 100 μM): Toxic | effect on new bone area (neonatal mouse calvaria): negligible effects

O=P(O)(O)C(Cl)(Cl)P(=O)(O)O [Clodronate, clodronate]
New Bone Area (neonatal mouse calvaria; other bisphosphonates, 10 μM): 4.8 ± 1.3 mm^2 × 10^−3 | New Bone Area (neonatal mouse calvaria; other bisphosphonates, 100 μM): 4.6 ± 0.6 mm^2 × 10^−3 | New Bone Area (neonatal mouse calvaria; other bisphosphonates, 1000 μM): 3.5 ± 0.5 mm^2 × 10^−3 | effect on new bone area (neonatal mouse calvaria): negligible effects

CC(C)n1c(/C=C/C(O)CC(O)CC(=O)O)c(-c2ccc(F)cc2)c2ccccc21 (stereo not drawn) [Fluvastatin, fluvastatin]
% 59-0008 Response (BMP-2 promoter; Experiment 1, 0.195312 μg/ml): 36.820% | Fold increase over negative control (BMP-2 promoter; Experiment 1, 0.195312 μg/ml): 2.630 fold | % 59-0008 Response (BMP-2 promoter; Experiment 1, 0.390625 μg/ml): 28.080% | Fold increase over negative control (BMP-2 promoter; Experiment 1, 0.390625 μg/ml): 2.243 fold | % 59-0008 Response (BMP-2 promoter; Experiment 1, 0.78125 μg/ml): 75.160% | Fold increase over negative control (BMP-2 promoter; Experiment 1, 0.78125 μg/ml): 4.328 fold | % 59-0008 Response (BMP-2 promoter; Experiment 1, 1.5625 μg/ml): 117.980% | Fold increase over negative control (BMP-2 promoter; Experiment 1, 1.5625 μg/ml): 6.223 fold | % 59-0008 Response (BMP-2 promoter; Experiment 1, 3.125 μg/ml): 173.280% | Fold increase over negative control (BMP-2 promoter; Experiment 1, 3.125 μg/ml): 8.672 fold | % 59-0008 Response (BMP-2 promoter; Experiment 1, 6.25 μg/ml): 165.630% | Fold increase over negative control (BMP-2 promoter; Experiment 1, 6.25 μg/ml): 8.333 fold | % 59-0008 Response (BMP-2 promoter; Experiment 1, 12.5 μg/ml): 164.450% | Fold increase over negative control (BMP-2 promoter; Experiment 1, 12.5 μg/ml): 8.281 fold | % 59-0008 Response (BMP-2 promoter; Experiment 1, 25 μg/ml): 137.500% | Fold increase over negative control (BMP-2 promoter; Experiment 1, 25 μg/ml): 7.088 fold | % 59-0008 Response (BMP-2 promoter; Experiment 1, 50 μg/ml): −22.660% | Fold increase over negative control (BMP-2 promoter; Experiment 1, 50 μg/ml): −0.003 fold | % 59-0008 Response (BMP-2 promoter; Experiment 1, 200 μg/ml): −22.700% | Fold increase over negative control (BMP-2 promoter; Experiment 1, 200 μg/ml): −0.005 fold | % 59-0008 Response (BMP-2 promoter; Experiment 3, 0.002842 μg/ml): −3.26% | Fold increase over negative control (BMP-2 promoter; Experiment 3, 0.002842 μg/ml): 0.83 fold | % 59-0008 Response (BMP-2 promoter; Experiment 3, 0.009094 μg/ml): −3.84% | Fold increase over negative control (BMP-2 promoter; Experiment 3, 0.009094 μg/ml): 0.8 fold | % 59-0008 Response (BMP-2 promoter; Experiment 3, 0.029103 μg/ml): −5.18% | Fold increase over negative control (BMP-2 promoter; Experiment 3, 0.029103 μg/ml): 0.73 fold | % 59-0008 Response (BMP-2 promoter; Experiment 3, 0.093132 μg/ml): −2.11% | Fold increase over negative control (BMP-2 promoter; Experiment 3, 0.093132 μg/ml): 0.89 fold | % 59-0008 Response (BMP-2 promoter; Experiment 3, 0.298023 μg/ml): −3.26% | Fold increase over negative control (BMP-2 promoter; Experiment 3, 0.298023 μg/ml): 0.83 fold | % 59-0008 Response (BMP-2 promoter; Experiment 3, 0.953674 μg/ml): 2.3% | Fold increase over negative control (BMP-2 promoter; Experiment 3, 0.953674 μg/ml): 1.12 fold | % 59-0008 Response (BMP-2 promoter; Experiment 3, 3.051757 μg/ml): 22.66% | Fold increase over negative control (BMP-2 promoter; Experiment 3, 3.051757 μg/ml): 2.18 fold | % 59-0008 Response (BMP-2 promoter; Experiment 3, 9.765625 μg/ml): 103.7% | Fold increase over negative control (BMP-2 promoter; Experiment 3, 9.765625 μg/ml): 6.4 fold | % 59-0008 Response (BMP-2 promoter; Experiment 3, 31.25 μg/ml): 122.53% | Fold increase over negative control (BMP-2 promoter; Experiment 3, 31.25 μg/ml): 7.38 fold | % 59-0008 Response (BMP-2 promoter; [1]): −0.19% | Fold increase over negative control (BMP-2 promoter; [1]): 0.99 fold

CCCCCN(C)CCC(O)(P(=O)(O)O)P(=O)(O)O [Ibandronate, ibandronate]
effect on bone formation (dose response curves) (neonatal mouse calvaria; 10 μM): significant increase of bone formation | New Bone Area (neonatal mouse calvaria; Experiment 1, 10 μM): 8.3 ± 0.7 mm^2 × 10^−3 | New Bone Area (neonatal mouse calvaria; Experiment 1, 100 μM): Toxic | New Bone Area (neonatal mouse calvaria; Experiment 1, 1000 μM): Toxic | New Bone Area (neonatal mouse calvaria; Experiment 2, 0.01 μM): 3.5 ± 0.43 mm^2 × 10^−3 | New Bone Area (neonatal mouse calvaria; Experiment 2, 0.1 μM): 3.2 ± 0.56 mm^2 × 10^−3 | New Bone Area (neonatal mouse calvaria; Experiment 2, 1 μM): 4.9 ± 1.2 mm^2 × 10^−3 | New Bone Area (neonatal mouse calvaria; Experiment 2, 10 μM): 7.2 ± 0.7 mm^2 × 10^−3 | New Bone Area (neonatal mouse calvaria; Experiment 2, 100 μM): Toxic | New Bone Area (neonatal mouse calvaria; Experiment 2, 1000 μM): Toxic | New Bone Area (neonatal mouse calvaria; Experiment 3, 0.1 μM): 6.2 ± 0.6 mm^2 × 10^−3 | New Bone Area (neonatal mouse calvaria; Experiment 3, 1 μM): 7.5 ± 0.7 mm^2 × 10^−3 | New Bone Area (neonatal mouse calvaria; Experiment 3, 10 μM): 9.5 ± 2.4 mm^2 × 10^−3 | New Bone Area (neonatal mouse calvaria; Experiment 3, 100 μM): Toxic | New Bone Area (neonatal mouse calvaria; combination study, IBN (1 μM), ibandronate 1 μM alone): 3.95 ± 0.28 mm^2 × 10^−3 | New Bone Area (neonatal mouse calvaria; combination study, IBN (10 μM), ibandronate 10 μM alone): 6.03 ± 1.56 mm^2 × 10^−3
